The subject of assay [1] is Sida cordifolia L. (heartleaf sida, SIDCO). As to the kind of experiment: Postemergence herbicidal weed control, fluroxypyr-meptyl and diclosulam, greenhouse trials (Table 1). It counts as in vivo. To be noted: 14DAA1, 200 g ae/ha. As to the method: (§1) Seeds of the desired test plant species were planted in a peat-based potting soil, Metro-Mix 360® in plastic pots with a surface area of 128 square centimeters (cm^2). Metro-Mix 360® consists of formulated Canadian sphagnum peat moss, coarse perlite, bark ash, a starter nutrient charge (with gypsum), a slow-release nitrogen and dolomitic limestone. The plants were grown for 7-19 days in a greenhouse with an approximate 14-hour (h) photoperiod which was maintained at about 29° C. during the day and 26° C. during the night. Nutrients and water were added on a regular basis and supplemental lighting was provided with overhead metal halide 1000-Watt lamps as necessary. The plants were treated with postemergence foliar applications when they reached the third to fourth true leaf stage. All treatments were applied using a randomized complete block trial design, with 4 replications per treatment.
Treatments consisted of the compounds as listed in Tables 1 to 4, each compound applied alone and in combination. […]
Treatments were rated at 7 to 21 days after application (DAA) as compared to the untreated control plants. Visual weed control was scored on a scale of 0 to 100 percent where 0 corresponds to no injury and 100 corresponds to complete kill. […]

For assay [2], the system named is Chenopodium album (common lambsquarters, CHEAL). The description is as above. It counts as in vivo. Here is the method: as §1
Treatments consisted of the compounds as listed in Tables 1 to 4, each compound applied alone and in combination. Commercially formulated products of fluroxypyr-meptyl (STARANE™, 333 grams acid equivalent per liter (g ae/L) EC), diclosulam (SPIDER® 84WG), cloransulam-methyl (FIRSTRATE™ 84WG), chlorimuron-ethyl (CLASSIC® 25WG) and thifensulfuron-methyl (HARMONY® 50SG). Formulated amounts of fluroxypyr-meptyl, diclosulam, cloransulam-methyl, chlorimuron-ethyl and thifensulfuron-methyl were placed in 60 milliliter (mL) glass vials and dissolved in a volume of 30 or 60 mL of a water solution containing Agri-dex crop oil concentrate in a 1% volume per volume (v/v) ratio. Compound requirements are based upon either a 30- or a 60-mL application volume at a rate of 200 liters per hectare (L/ha). Spray solutions of the mixtures were prepared by adding the stock solutions to the appropriate amount of dilution solution to form either a 30- or a 60-mL spray solution with active ingredients in single and two-way combinations. Formulated compounds were applied to the plant material with an overhead Generation III Research Sprayer manufactured by DeVries Manufacturing in Hollandale, Minn., USA. The track sprayer was equipped with an 8003E nozzle calibrated to deliver 200 L/ha at a spray height of 18 inches (43 centimeters (cm)) above average plant canopy.
The treated plants and untreated control plants were placed in a greenhouse as described above and watered by sub-irrigation to prevent wash-off of the test compounds.
Treatments were rated at 7 to 21 days after application (DAA) as compared to the untreated control plants. Visual weed control was scored on a scale of 0 to 100 percent where 0 corresponds to no injury and 100 corresponds to complete kill.
Colby's equation was used to determine the herbicidal effects expected from the mixtures (Colby, S. R. Calculation of the synergistic and antagonistic response of herbicide combinations. Weeds 196715, 20-22). A t-test (alpha=0.05) between Colby predictions and observed combinations was used to test for significant differences indicating synergy or antagonism. The results presented in the Tables were significant according to the described criteria.
The following equation was used to calculate the expected activity of mixtures containing two active ingredients, A and B: Expected=A+B−(A×B/100) • A=observed efficacy of active ingredient A at the same concentration as used in the mixture; • B=observed efficacy of active ingredient B at the same concentration as used in the mixture.

The text below walks through data of patent publication US9737073B2, “Herbicidal weed control from combinations of fluroxypyr and ALS inhibitors” (Dow AgroSciences LLC, priority 2014, dated 2017).

Consider `CCCCCCC(C)OC(=O)COc1nc(F)c(Cl)c(N)c1Cl` (centres unmarked) [Fluroxypyr-meptyl, fluroxypyr-methylheptyl ester], for which the “Fluroxypyr-meptyl Mean % weed control” value is recorded as 30.0% in assay [1]; 43.3% in assay [2] (8DAA1, 50 g ae/ha); 20.0% in assay [2] (14DAA1, 50 g ae/ha); 18.3% in assay [2] (21DAA1, 50 g ae/ha); 21.0% in assay [2] (21DAA1, 100 g ae/ha).
